For 21 compounds, IC50 results are on record in US20250275959A1, “COMPOUNDS AND METHODS OF THEIR USE” (LEXICON PHARMACEUTICALS, INC., priority 2024, published 2025).

Experiment [1] deals with T1, hACSL5 (Homo sapiens (Human), UniProt Q9ULC5). The experiment is described as follows: Human ACSL5 coupled enzyme Amplex Red assay. The format is biochemical. The following applies: read-out: hACSL5 IC50. The essentials: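 C-terminally His-tagged ACSL5 (33-683) from sf9 cells, 20 nM, was preincubated with compound in MOPS-NaOH pH 7.6 with MgCl2, peroxidase and acyl-CoA oxidase. Reactions were started with 25 μM oleate, 30 μM CoA, 1 mM ATP and 50 μM Amplex Red; fluorescence (535/590 nm) after 10 minutes at 25° C. was fitted to the Hill equation for IC50 and maximal inhibition.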
Target sequence in this assay (Q9ULC5 33-683): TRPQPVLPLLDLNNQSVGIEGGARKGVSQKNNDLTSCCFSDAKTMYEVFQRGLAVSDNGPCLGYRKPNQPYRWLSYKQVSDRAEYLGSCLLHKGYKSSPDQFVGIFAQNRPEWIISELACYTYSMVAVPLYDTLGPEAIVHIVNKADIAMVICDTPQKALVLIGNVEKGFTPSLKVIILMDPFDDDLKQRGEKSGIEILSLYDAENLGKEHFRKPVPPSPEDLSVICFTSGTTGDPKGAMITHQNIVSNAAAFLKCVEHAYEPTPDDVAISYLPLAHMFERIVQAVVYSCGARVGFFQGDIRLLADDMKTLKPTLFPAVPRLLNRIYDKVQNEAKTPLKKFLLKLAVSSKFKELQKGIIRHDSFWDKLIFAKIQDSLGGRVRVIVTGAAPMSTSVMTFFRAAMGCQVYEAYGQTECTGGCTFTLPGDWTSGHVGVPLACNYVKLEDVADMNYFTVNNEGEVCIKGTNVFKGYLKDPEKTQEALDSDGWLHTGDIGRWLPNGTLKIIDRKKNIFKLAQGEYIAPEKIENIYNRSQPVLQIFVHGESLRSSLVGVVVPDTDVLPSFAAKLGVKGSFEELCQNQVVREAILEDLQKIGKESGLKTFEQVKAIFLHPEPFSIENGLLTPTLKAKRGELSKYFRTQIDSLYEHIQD

Experiment [2] addresses T1, hACSL5. The experiment is described as follows: Cell-based assay (CBA) with B12FA in hACSL5-transfected Expi293F / FlpIn TRex293 cells. The note with it: hACSL5-expressing cells. The text has this:
To assess the cell penetration and cellular activity of the compounds, a cell-based assay (CBA) was used to detect compound potency in living cells. The assay utilized the fluorescent fatty acid analogue B12FA, a boron-dipyrromethene (BODIPY™) labelled C12 fatty acid that can be incorporated into glycerophosphocholine in the cytoplasmic oil droplets of live cells. A concentration-dependent, red-shifted fluorescence can be induced by the formation of BODIPY™ excimers in the oil droplets.
Expi293F cells transfected with full length hACSL5 plasmid were selected using 1 mg/mL G418 culture medium and clones were selected by in vitro whole cell lysate (WCL) assay. The cell passage number used in the Expi293 CBA assay could not be used beyond 10 passages due to a decrease in hACSL5 expression. Therefore, a CBA using FlpIn TRex293 cells for inducible expression of hACSL5 was also established.
FlpIn TRex293 cells transfected with hACSL5 plasmid were selected in culture medium containing 15 µg/ml Blasticidin and 150 µg/ml Hygromycin. For cell-based assays, stable transfected hACSL5 cells were seeded onto a 96-well plate at 30-50k/well and incubated overnight. For the inducible system, […] tetracycline (or doxycycline) was added to culture medium of FlpIn TRex293 hACSL5 cells on the day before the assay to induce expression of hACSL5. The next day, growth media was replaced with culture medium without FBS and glucose (DMEM glucose (-), ThermoFisher) and cells were incubated for an hour before treating cells with serial diluted compounds containing 20 µM B12FA (ThermoFisher) for another 3 hours in the above medium. Cells were then fixed in 4% formaldehyde for 10 minutes and washed twice with PBS. The plate was read using the Cytation 5 imaging system with an excitation wavelength of 485 nm and observed emissions at 630 nm and 520 nm. The percentage of inhibition was calculated as: […]
wherein A is the ratio of emission intensities at 630 nm/520 nm in the absence of inhibitor (maximum ratio); B is the ratio of the intensities at those wavelengths in the presence of […] of the test compound or non-induced cells (minimum ratio); and X is the ratio of the intensities at a given compound concentration.
Concentration-response titration points for each compound tested were filled to the Hill equation yielding concentrations of half maximal inhibition […] and maximal inhibition values.
Target sequence in this assay (Q9ULC5 whole entry): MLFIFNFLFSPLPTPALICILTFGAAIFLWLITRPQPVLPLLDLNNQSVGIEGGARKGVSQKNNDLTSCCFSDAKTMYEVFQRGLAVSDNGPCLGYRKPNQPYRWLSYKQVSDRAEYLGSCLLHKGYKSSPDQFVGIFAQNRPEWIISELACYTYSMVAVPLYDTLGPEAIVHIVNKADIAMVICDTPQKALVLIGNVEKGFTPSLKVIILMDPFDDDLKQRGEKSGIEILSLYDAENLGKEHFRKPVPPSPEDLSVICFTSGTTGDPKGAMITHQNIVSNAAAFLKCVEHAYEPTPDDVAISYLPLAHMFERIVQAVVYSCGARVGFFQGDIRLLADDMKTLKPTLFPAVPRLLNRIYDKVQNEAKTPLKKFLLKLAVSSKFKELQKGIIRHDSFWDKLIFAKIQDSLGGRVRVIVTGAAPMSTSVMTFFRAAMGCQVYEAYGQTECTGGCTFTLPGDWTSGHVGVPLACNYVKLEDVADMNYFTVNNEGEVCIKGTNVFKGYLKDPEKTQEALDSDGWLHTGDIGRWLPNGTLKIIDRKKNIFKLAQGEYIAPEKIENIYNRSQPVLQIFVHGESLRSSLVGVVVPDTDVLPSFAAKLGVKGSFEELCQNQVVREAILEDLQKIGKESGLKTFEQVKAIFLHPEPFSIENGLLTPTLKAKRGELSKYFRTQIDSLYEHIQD

The structures appear in SMILES notation.

On to `CC[C@@H](Oc1ccc(C(=O)NS(=O)(=O)N2CCC(OC3CCN(C)CC3)CC2)c(F)c1F)c1cccc(OCC2CC2)c1` [(R)-4-(1-(3-(cyclopropylmethoxy)phenyl)propoxy)-2,3-difluoro-N-((4-((1-methylpiperidin-4-yl)oxy)piperidin-1-yl)sulfonyl)benzamide], for which the half-inhibitory concentration (IC50) in experiment [1] and in experiment [2] was 100 to 500 nM each time.
Consider `CC[C@@H](Oc1ccc(C(=O)NS(=O)(=O)c2ccc(OC3CCN(C)CC3)cc2)c(F)c1F)c1cc(OCC2CC2)ccn1` [(R)-4-(1-(4-(cyclopropylmethoxy)pyridin-2-yl)propoxy)-2,3-difluoro-N-((4-((1-methylpiperidin-4-yl)oxy)phenyl)sulfonyl)benzamide], for which the IC50 in experiment [1] and in experiment [2] was 100 to 500 nM in each case.
Regarding `CC[C@@H](Oc1ccc(C(=O)NS(=O)(=O)N2CCC(OC3CCN(C)CC3)CC2)c(F)c1F)c1cc(OCC2CC2)ccn1` [(R)-4-(1-(4-(cyclopropylmethoxy)pyridin-2-yl)propoxy)-2,3-difluoro-N-((4-((1-methylpiperidin-4-yl)oxy)piperidin-1-yl)sulfonyl)benzamide], the 50% inhibitory concentration (IC50) in experiment [1] and in experiment [2] was 100 to 500 nM in each case.
In the case of `CC[C@@H](Oc1ccc(C(=O)NS(=O)(=O)N2CCN(C)CC2)c(F)c1F)c1cc(OCC2CC2)ccn1` [(R)-4-(1-(4-(cyclopropylmethoxy)pyridin-2-yl)propoxy)-2,3-difluoro-N-((4-methylpiperazin-1-yl)sulfonyl)benzamide], the IC50 in experiment [1] and in experiment [2] was 100 to 500 nM throughout.
Regarding `CC[C@@H](Oc1ccc(C(=O)NS(=O)(=O)c2ccc(OCCN(C)C)cc2)c(F)c1F)c1cc(OCC2CC2)ccn1` [(R)-4-(1-(4-(cyclopropylmethoxy)pyridin-2-yl)propoxy)-N-((4-(2-(dimethylamino)ethoxy)phenyl)sulfonyl)-2,3-difluorobenzamide], the IC50 in experiment [1] and in experiment [2] was 100 to 500 nM throughout.
As for `CC[C@@H](Oc1ccc(C(=O)NS(=O)(=O)C2CCN(C)CC2)c(F)c1F)c1ccc(OCC2CC2)cn1` [(R)-4-(1-(5-(cyclopropylmethoxy)pyridin-2-yl)propoxy)-2,3-difluoro-N-((1-methylpiperidin-4-yl)sulfonyl)benzamide], the IC50 in experiment [1] was 100 to 500 nM; in experiment [2] it was more than 500 nM.
The matching figures for `CC[C@@H](Oc1ccc(C(=O)NS(=O)(=O)N2CCN(C)CC2(C)C)c(F)c1F)c1ccc(OCC2CC2)cn1` [(R)-4-(1-(5-(cyclopropylmethoxy)pyridin-2-yl)propoxy)-2,3-difluoro-N-((2,2,4-trimethylpiperazin-1-yl)sulfonyl)benzamide]: less than 100 nM and less than 100 nM.
Turning to `CC[C@@H](Oc1ccc(C(=O)NS(=O)(=O)c2cnc(OC3CCN(C)CC3)nc2)c(F)c1F)c1ccc(OCC2CC2)cn1` [(R)-4-(1-(5-(cyclopropylmethoxy)pyridin-2-yl)propoxy)-2,3-difluoro-N-((2-((1-methylpiperidin-4-yl)oxy)pyrimidin-5-yl)sulfonyl)benzamide], the half-inhibitory concentration (IC50) in experiment [1] is less than 100 nM; in experiment [2], more than 500 nM.
The corresponding values for `CC[C@@H](Oc1ccc(C(=O)NS(=O)(=O)N2CCN(C)C(C)(C)C2)c(F)c1F)c1ccc(OCC2CC2)cn1` [(R)-4-(1-(5-(cyclopropylmethoxy)pyridin-2-yl)propoxy)-2,3-difluoro-N-((3,3,4-trimethylpiperazin-1-yl)sulfonyl)benzamide] are less than 100 nM and less than 100 nM.
The matching figures for `CC[C@@H](Oc1ccc(C(=O)NS(=O)(=O)c2ccc(OCCN3CCN(C)CC3)cc2)c(F)c1F)c1ccc(OCC2CC2)cn1` [(R)-4-(1-(5-(cyclopropylmethoxy)pyridin-2-yl)propoxy)-2,3-difluoro-N-((4-(2-(4-methylpiperazin-1-yl)ethoxy)phenyl)sulfonyl)benzamide]: less than 100 nM and 100 to 500 nM.
The matching figures for `CC[C@@H](Oc1ccc(C(=O)NS(=O)(=O)c2ccc(OCCNC3COC3)cc2)c(F)c1F)c1ccc(OCC2CC2)cn1` [(R)-4-(1-(5-(cyclopropylmethoxy)pyridin-2-yl)propoxy)-2,3-difluoro-N-((4-(2-(oxetan-3-ylamino)ethoxy)phenyl)sulfonyl)benzamide]: less than 100 nM and 100 to 500 nM.
With `CC[C@@H](Oc1ccc(C(=O)NS(=O)(=O)c2ccc(OCCN3CCCCC3)cc2)c(F)c1F)c1ccc(OCC2CC2)cn1` [(R)-4-(1-(5-(cyclopropylmethoxy)pyridin-2-yl)propoxy)-2,3-difluoro-N-((4-(2-(piperidin-1-yl)ethoxy)phenyl)sulfonyl)benzamide], the IC50 in experiment [1] and in experiment [2] was less than 100 nM each time.
For the compound `CC[C@@H](Oc1ccc(C(=O)NS(=O)(=O)c2ccc(OCCN3CCCC3)cc2)c(F)c1F)c1ccc(OCC2CC2)cn1` [(R)-4-(1-(5-(cyclopropylmethoxy)pyridin-2-yl)propoxy)-2,3-difluoro-N-((4-(2-(pyrrolidin-1-yl)ethoxy)phenyl)sulfonyl)benzamide], the values for the 50% inhibitory concentration (IC50) in experiment [1] and in experiment [2] were less than 100 nM and 100 to 500 nM, respectively.
The corresponding values for `CC[C@@H](Oc1ccc(C(=O)NS(=O)(=O)N2CCN(CC(C)(C)F)CC2)c(F)c1F)c1ccc(OCC2CC2)cn1` [(R)-4-(1-(5-(cyclopropylmethoxy)pyridin-2-yl)propoxy)-2,3-difluoro-N-((4-(2-fluoro-2-methylpropyl)piperazin-1-yl)sulfonyl)benzamide] are less than 100 nM and less than 100 nM.
The matching figures for `CC[C@@H](Oc1ccc(C(=O)NS(=O)(=O)N2CCN(CC(C)(C)O)CC2)c(F)c1F)c1ccc(OCC2CC2)cn1` [(R)-4-(1-(5-(cyclopropylmethoxy)pyridin-2-yl)propoxy)-2,3-difluoro-N-((4-(2-hydroxy-2-methylpropyl)piperazin-1-yl)sulfonyl)benzamide]: less than 100 nM and 100 to 500 nM.
The matching figures for `CC[C@@H](Oc1ccc(C(=O)NS(=O)(=O)N2CCN(CCOC)CC2)c(F)c1F)c1ccc(OCC2CC2)cn1` [(R)-4-(1-(5-(cyclopropylmethoxy)pyridin-2-yl)propoxy)-2,3-difluoro-N-((4-(2-methoxyethyl)piperazin-1-yl)sulfonyl)benzamide]: less than 100 nM and less than 100 nM.
As to `CC[C@@H](Oc1ccc(C(=O)NS(=O)(=O)c2ccc(OCCN3CCOCC3)cc2)c(F)c1F)c1ccc(OCC2CC2)cn1` [(R)-4-(1-(5-(cyclopropylmethoxy)pyridin-2-yl)propoxy)-2,3-difluoro-N-((4-(2-morpholinoethoxy)phenyl)sulfonyl)benzamide], the 50% inhibitory concentration (IC50) in experiment [1] was less than 100 nM; in experiment [2] it was more than 500 nM.
The corresponding values for `CC[C@@H](Oc1ccc(C(=O)NS(=O)(=O)c2ccc(OC3CCN(CC(C)(C)O)CC3)cc2)c(F)c1F)c1ccc(OCC2CC2)cn1` [(R)-4-(1-(5-(cyclopropylmethoxy)pyridin-2-yl)propoxy)-2,3-difluoro-N-((4-((1-(2-hydroxy-2-methylpropyl)piperidin-4-yl)oxy)phenyl)sulfonyl)benzamide] are less than 100 nM and 100 to 500 nM.
The matching figures for `CC[C@@H](Oc1ccc(C(=O)NS(=O)(=O)N2CCC(OC3CCN(CC(C)(C)O)CC3)CC2)c(F)c1F)c1ccc(OCC2CC2)cn1` [(R)-4-(1-(5-(cyclopropylmethoxy)pyridin-2-yl)propoxy)-2,3-difluoro-N-((4-((1-(2-hydroxy-2-methylpropyl)piperidin-4-yl)oxy)piperidin-1-yl)sulfonyl)benzamide]: less than 100 nM and 100 to 500 nM.
In the case of `CC[C@@H](Oc1ccc(C(=O)NS(=O)(=O)c2ccc(OC3CCN(CCO)CC3)cc2)c(F)c1F)c1ccc(OCC2CC2)cn1` [(R)-4-(1-(5-(cyclopropylmethoxy)pyridin-2-yl)propoxy)-2,3-difluoro-N-((4-((1-(2-hydroxyethyl)piperidin-4-yl)oxy)phenyl)sulfonyl)benzamide], the half-inhibitory concentration (IC50) in experiment [1] was less than 100 nM; in experiment [2], 100 to 500 nM.
The corresponding values for `CC[C@@H](Oc1ccc(C(=O)NS(=O)(=O)c2ccc(OC3CCN(CCOC)CC3)cc2)c(F)c1F)c1ccc(OCC2CC2)cn1` [(R)-4-(1-(5-(cyclopropylmethoxy)pyridin-2-yl)propoxy)-2,3-difluoro-N-((4-((1-(2-methoxyethyl)piperidin-4-yl)oxy)phenyl)sulfonyl)benzamide] are less than 100 nM and less than 100 nM.
